One test deals with T1, human EP1 receptor (Homo sapiens, UniProt P34995).
T1 construct: expressed in transfected cells
T1 sequence (P34995 1-402): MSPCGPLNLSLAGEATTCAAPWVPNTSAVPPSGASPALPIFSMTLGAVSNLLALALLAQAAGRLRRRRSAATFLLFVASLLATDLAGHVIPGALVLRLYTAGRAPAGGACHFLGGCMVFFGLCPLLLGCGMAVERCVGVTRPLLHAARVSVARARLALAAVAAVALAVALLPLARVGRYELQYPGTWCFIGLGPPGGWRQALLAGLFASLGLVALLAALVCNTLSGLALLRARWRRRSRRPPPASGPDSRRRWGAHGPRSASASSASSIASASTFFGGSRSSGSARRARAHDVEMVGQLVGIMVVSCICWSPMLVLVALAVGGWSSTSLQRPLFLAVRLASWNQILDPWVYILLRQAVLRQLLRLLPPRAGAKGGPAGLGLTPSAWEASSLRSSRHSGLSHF
The experiment in a line: Radioligand ([3H]PGE2) competition displacement binding, human EP1 receptor membranes. The conditions noted are these: [3H]PGE2 displacement, read-out: pKi EP1 (converted). The procedure: Membranes were prepared from cells stably transfected with human EP receptor cDNA. In brief, cells were cultured to confluency, scraped from culture flasks, and centrifuged (800 g, 8 minutes, 4° C.). Cells were twice washed in ice cold homogenisation buffer containing 10 mMTris-HCl, 1 mM EDTA.2Na, 250 mM sucrose, 1 mM PMSF, 0.3 mM indomethacin, pH 7.4, homogenised and re-centrifuged as before. The supernatant was stored on ice and pellets re-homogenised and re-spun. Supernatants were pooled and centrifuged at 40000 g, 10 minutes, 4° C. Resultant membrane pellets were stored at −80° C. until use.
For assay, membranes expressing human EP4, EP3, EP2 or EP1 receptors were incubated in Millipore (MHVBN45) plates containing assay buffer, radiolabelled [^3H]PGE2 and 0.1 to 10 000 nM concentrations of compounds. Incubations were performed at suitable temperatures and for suitable times to allow equilibrium to be reached. Non-specific binding was determined in the presence of 10 uM PGE2. Bound and free radiolabel was separated by vacuum manifold filtration using appropriate wash buffers, and bound radiolabel was determined by scintillation counting. Constituents of each of the buffers are included in table 4 below.
The affinity or pKi of each compound for each receptor was calculated from the concentration causing 50% radioligand displacement (IC50) using the Cheng-Prusoff equation: [formula] […]

For test [1], the system named is interferon gamma release by lymphocytes. The experiment in a line: Lymphocyte assay: interferon gamma release. The conditions noted are these: two donors (FIG. 11). Format: cell-based, human. The text has this: Lymphocytes are mononuclear leukocytes, which participate in specific immune responses to foreign antigens and in the manifestation of auto-immune diseases. T lymphocytes produce IL-2, a key factor for lymphocyte activation and proliferation, in response to antigen stimulation via the CD3-T cell receptor complex and the pathway involved in this response is the NF-AT. […] A lymphocyte assay was designed to model this response and to determine the effect of test compound on IL-2 production by anti-CD3-stimulated T cells isolated from peripheral blood. This assay uses a sub-optimal dose of an anti-CD3 monoclonal antibody (OKT3, 25 ng/ml) immobilised to a 96-well plate to stimulate a T cell response. The level of IL-2 released into the cell culture supernatants was quantified using a standard sandwich ELISA. Similarly, other cytokines such as TNFα and IFN-γ can also be measured in the same assay. […]
Lymphocytes were then seeded to a 96-well plate pre-coated with anti-CD3 monoclonal antibody (OKT3) at 25 ng/ml and immediately, the test compounds (Peak 1, mixture 1 acid; Peak 1, mixture 2 acid; AH-13205 racemate; PGE2) in appropriate dilutions were added to corresponding wells according to the experimental design. […] The levels of IFN-γ was assessed by using the ProteoPlex 16 well human cytokine array assay kit according to the manufacturer's instruction.

The next test has as its system lymphocyte proliferation. The experiment in a line: Lymphocyte proliferation driven by immobilised anti-CD3 antibody. In kind it is cell-based, human. As to conditions: Homo sapiens, inhibition of lymphocyte proliferation, 72 h, mean of three donors. The text has this: Lymphocytes are mononuclear leukocytes, which participate in specific immune responses to foreign antigens and in the manifestation of auto-immune diseases. T lymphocytes produce IL-2, a key factor for lymphocyte activation and proliferation, in response to antigen stimulation via the CD3-T cell receptor complex and the pathway involved in this response is the NF-AT. […] A lymphocyte assay was designed to model this response and to determine the effect of test compound on IL-2 production by anti-CD3-stimulated T cells isolated from peripheral blood. This assay uses a sub-optimal dose of an anti-CD3 monoclonal antibody (OKT3, 25 ng/ml) immobilised to a 96-well plate to stimulate a T cell response. The level of IL-2 released into the cell culture supernatants was quantified using a standard sandwich ELISA. Similarly, other cytokines such as TNFα and IFN-γ can also be measured in the same assay.
Human peripheral blood mononuclear cells from healthy volunteers were isolated from whole blood by Ficoll-Hypaque density centrifugation and adherence to plastic. The non-adherent lymphocyte fraction was used to set up the lymphocyte assay and the adherent monocytes were then recovered by scraping and subsequently used in the monocyte assay.
For the measurement of lymphocyte proliferation driven by immobilised anti-CD3 monoclonal antibody, the assay was set up in the same way as for the measurement of IL-2 release, except that the cells were cultured for 72 hours in the presence or absence of test compounds. Four hours prior to the termination of the proliferation assay, a novel tetrazolium compound solution supplied by Promega in the format of Cell Proliferation Assay Kit was added to individual wells according to the manufacturer's instruction. The plate was then placed back in the incubator for the remaining 4 hours and the […] reaction was measured using a spectrophotometer at an absorbent wavelength of 490 nm (SpectraMax, Molecular Devices) according to the manufacturer's instruction.

Test [2] has as its system TNFα production by alveolar macrophages. The experiment in a line: Alveolar macrophage assay: LPS-induced TNFα release. As to conditions: Homo sapiens, Macrophage, inhibition of TNFα production, LPS 1 μg/ml, 24 h, mean of three donors. Format: cell-based, human. The procedure: Human lung parenchyma was cut into small pieces and perfused with ice-cold phosphate buffered saline (PBS) to remove contaminating blood and mucus. The tissues were then chopped with scissors in the presence of Minimum Essential Medium supplemented with penicillin, streptomycin, L-glutamine and DNase (0.25 mg/ml). The chopped tissues were shaken gently to dislodge the macrophages. A crude cell suspension was then obtained by the removal of the tissues with a sterile filter (150 μm pore size). The resulting cell suspension was spun and the cell pellet collected. Contaminating red blood cells were depleted with a red blood cell lysis buffer and the remaining cells washed twice with PBS by centrifugation. Alveolar macrophages were then purified from this cell preparation by using a positive selection method for CD14-molecule bearing cells using a VarioMac™ Separator and respective positive selection reagents and columns supplied by Miltenyi Biotec Ltd according to the manufacturer's instruction.
For the assay, alveolar macrophages were resuspended in complete culture medium consisting of RPMI1640 supplemented with 10% foetal calf serum, L-glutamine and antibiotics. The cells were then plated into 24 well plates (4×10^5 cell/well) and incubated overnight at 37° C. with 5% CO2 in air to allow cell adherence. The exhausted medium was then removed from the plates and the plates rinsed briefly with fresh medium before the addition of test compound solutions. The test compounds were incubated with the cells for 30 minutes before the addition of E. Coli LPS (1 μg/ml). The assay plates were incubated in a humidified incubator at 37° C. with 5% CO2 in air for 24 hours. The release of TNFα by the cells into the culture supernatants was quantified using an ELISA kit (DuoSet® human TNFα ELSIA Development System) supplied by R+D Systems (Europe) according to the manufacturer's instruction. Indomethacin at 3 μM was included in all treatments to inhibit the possible release of endogenous prostaglandin E2.

Where [3] appears, read: log scale, read-out: Mean Log (EC50) (converted).

Like-named read-outs stand apart in the source and are kept apart here.

By EC50 is commonly meant the concentration needed to bring the measured effect to its halfway point.

In the case of `CCCCCC(O)c1ccc(C2CCC(=O)C2CCCCCCC(=O)O)cc1` (racemic) [AH13205, (±)-trans-2-[4-(1-hydroxyhexyl)phenyl]-5-oxo-cyclopentaneheptanoic acid, reference compound], the Ki on human EP1 receptor was 10 µM.

For the compound `CCCCC[C@H](O)c1ccc([C@H]2CCC(=O)[C@@H]2CCCCCCC(=O)O)cc1` (single isomer, unassigned) [Peak 1, Mixture 1 acid], the interferon gamma release entry in test [1] is recorded as “concentration-dependently inhibit interferon gamma release”. Also, the EC50 in the test with lymphocyte proliferation (read-out: Mean EC50) is 10 µM; in the test with lymphocyte proliferation (setting [3]) it was 10 µM; in test [2] (read-out: Mean EC50) it was 7.02 µM; in test [2] (setting [3]), 7.01 µM.

(Values after patent US20050209336A1, “EP2 receptor agonists” (priority 2003, published 2005).)
